Data set [1] deals with T1, NUDT1 (Homo sapiens, UniProt P36639). The experiment in a line: Thermal protein profiling (TPP) in intact HEK293 cells. The class given is cell-based. The arrangement: endogenous in cells; host or cells: HEK293. The note with it: 1 h. The method, then: (§1) incubated in a thermoshaker (600 rpm, 16 h, 37 °C). The digest was stopped by adding 10 μL formic
(§2) acid (FA) and vortexing followed by centrifugation (12,000 ×g, 3 min, room temperature). 50 mg
(§3) SepPak C18 columns (Waters, Milford, USA, Cat# WAT054960) were equilibrated by gravity flow two
(§4) times with 1 mL acetonitrile and three times with 1 mL aqueous 0.1% trifluoroacetic acid (TFA) solution.
(§5) Subsequently, the samples were loaded by gravity flow, washed three times with 1 mL aqueous 0.1%
(§6) TFA solution and once with 0.5 mL aqueous 0.5% formic acid (F A) solution. Elution of peptides into
(§7) new 2.0 mL Protein LoBind Eppendorf tubes was performed by two times addition of 250 μL elution
(§8) buffer (80% acetonitrile, 0.5% FA) by gravity flow followed by 250 μL elution buffer by vacuum flow
(§9) until all liquid was eluted from the column. The eluates were lyophilized. Before MS measurement the
(§10) (brief centrifugation after each step).
(§11) Thermal protein profiling (TPP)
(§12) The experiment was performed similarly to TPP-TR experiments described by Franken et al. with minor
(§13) modifications.5 HEK293 cells were grown in 8 T175 flasks to approx. 80-90% confluency. Per replicate
(§14) volume of 0.1 N HCl as vehicle control. Per condition two replicates were used, leading to a total of 8
T175 flasks. The cells were washed with PBS, detached with accutase, the two flask per replicate […]

A further data set addresses T2, RAP1A (Homo sapiens, UniProt P62834).
T2 construct: endogenous in cells; host or cells: HEK293
T2 sequence (P62834 1-184): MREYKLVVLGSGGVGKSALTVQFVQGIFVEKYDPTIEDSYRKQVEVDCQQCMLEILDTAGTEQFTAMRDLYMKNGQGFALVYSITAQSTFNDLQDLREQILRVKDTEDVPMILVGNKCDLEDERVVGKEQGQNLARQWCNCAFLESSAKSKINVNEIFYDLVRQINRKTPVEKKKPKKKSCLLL
The data set is described as above. The class given is cell-based. The conditions noted are these: 1 h. As for the experimental part:
as §1, §2, §3, §4, §5, §6, §7, §8, §9, §10, §11, §12, §13, §14
(§15) T175 flasks. The cells were washed with PBS, detached with accutase, the two flask per replicate
(§16) condition combined and the cells pelletized (500 ×g, 3 min, r.t.). The medium was removed and each
(§17) pellet (Cipro #1, Cipro #2, Ctrl. #1, Ctrl #2) washed twice with cold PBS. Each pellet was resuspended
(§18) depending on the sample. The cell suspension of each sample was distributed into 10 PCR tubes
(§19) (100 µL per tube), resulting in 10 stripes á 4 tubes (2×2 conditions, 10 temperature points). The PCR
(§20) tubes were subjected to the temperature gradient using a PCR cycler.
(§21) limitations, two separate programs had to be run to cover the desired temperature range (see
(§22) Table S4). The PCR tubes were heat-treated according to the two programs for 3 min and directly snap
(§23) frozen in liquid nitrogen.
(§24) manufacturer instructions.

A further data set deals with T3, FAM171A2 (Homo sapiens, UniProt A8MVW0).
T3 construct: endogenous in cells; host or cells: HEK293
The data set is described as above. The note with it: 1 h. It is filed as cell-based. As for the experimental part:
as §1, §2, §3, §4, §5, §6, §7, §8, §9, §10, §11, §12, §13, §14, §15, §16, §17, §18, §19, §20, §21, §22, §23, §24

Another data set addresses T4, MAIP1 (Homo sapiens, UniProt Q8WWC4).
T4 construct: endogenous in cells; host or cells: HEK293
T4 sequence (Q8WWC4 97-291): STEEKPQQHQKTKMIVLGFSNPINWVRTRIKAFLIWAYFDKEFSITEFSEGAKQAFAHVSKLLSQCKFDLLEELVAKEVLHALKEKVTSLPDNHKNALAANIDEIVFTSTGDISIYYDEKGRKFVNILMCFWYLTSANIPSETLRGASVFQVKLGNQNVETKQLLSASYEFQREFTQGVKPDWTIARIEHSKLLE
Described as above. The note with it: 1 h. It is filed as cell-based. As for the experimental part:
as §1, §2, §3, §4, §5, §6, §7, §8, §9, §10, §11, §12, §13, §14, §15, §16, §17, §18, §19, §20, §21, §22, §23, §24

The next data set concerns the target T5, ADAL (Homo sapiens, UniProt Q6DHV7).
T5 construct: endogenous in cells; host or cells: HEK293
T5 sequence (Q6DHV7 1-355): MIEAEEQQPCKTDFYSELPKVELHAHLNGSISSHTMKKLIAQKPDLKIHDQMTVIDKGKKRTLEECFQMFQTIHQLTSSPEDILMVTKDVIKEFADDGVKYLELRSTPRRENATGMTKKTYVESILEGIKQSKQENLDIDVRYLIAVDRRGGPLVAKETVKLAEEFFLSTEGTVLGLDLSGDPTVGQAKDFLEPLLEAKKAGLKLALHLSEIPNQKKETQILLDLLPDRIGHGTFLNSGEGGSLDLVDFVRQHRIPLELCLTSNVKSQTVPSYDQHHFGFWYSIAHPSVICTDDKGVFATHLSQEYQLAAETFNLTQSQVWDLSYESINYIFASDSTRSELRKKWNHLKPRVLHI
Described as above. The class given is cell-based. The note with it: 1 h. The method, then:
as §1, §2, §3, §4, §5, §6, §7, §8, §9, §10, §11, §12, §13, §14, §15, §16, §17, §18, §19, §20, §21, §22, §23, §24

In data set [2] the test system is periodontal ligament cell line (PDL‐hTERT). Briefly: Whole proteome analysis and pathway analysis of treated PDL-hTERT cells. It is filed as cell-based, human. More on the design: dose or concentration left out as unconfirmed. The note with it: […] μM, 3 days, versus vehicle.
The subject of another data set is PDL-hTERT cells. The experiment in a line: Live/dead staining and microscopy (morphology). The note with it: […] µM, 7 days. The class given is cell-based. More on the design: dose or concentration left out as unconfirmed.
Data set [3] addresses T1, NUDT1. Briefly: NUDT1 in vitro activity assay (malachite green). The class given is biochemical. More on the design: Full length NUDT1 gene synthesis; N-terminal His tag with thrombin site from pET28a(+) (NdeI/XhoI) (N, cleaved yes); made in house; host or cells: E. coli BL21 (DE3). The conditions noted are these: 100 μM.

This is an account of results in article PMC12036814 (Angewandte Chemie (International Ed. in English), 2025).

Read-outs that look alike come from different tables or passages of the source.

For `O=C(O)c1cn(C2CC2)c2cc(N3CCNCC3)c(F)cc2c1=O` [Ciprofloxacin], the ΔTm at 70 µM at NUDT1 [1] (read-out: ΔTm Rep. 1) was 3.29 °C; at NUDT1 [1] (read-out: ΔTm Rep. 2), 3.4 °C; on RAP1A (read-out: ΔTm Rep. 1), 1.79 °C; at RAP1A (read-out: ΔTm Rep. 2), 2.89 °C; at FAM171A2 (read-out: ΔTm Rep. 1) it was 5.82 °C; on FAM171A2 (read-out: ΔTm Rep. 2), 3.92 °C. In addition, the ΔTm at 70 µM at MAIP1 (read-out: ΔTm Rep. 1) amounted to 2.28 °C; on MAIP1 (read-out: ΔTm Rep. 2), 3.73 °C; on ADAL (read-out: ΔTm Rep. 1), 5.91 °C; on ADAL (read-out: ΔTm Rep. 2), 6.21 °C. Besides, the “regulation of ETC complex I and IV subunits” value in data set [2] was “significant down‐regulation of complex I (blue) and complex IV (green) subunits of the ETC”. In the data set with PDL-hTERT cells, the cell morphology entry is “cell rounding”. Also, on NUDT1 [3], the “NUDT1 in vitro activity, inhibition” value is given as “significant partial inhibition”.
